Where a name gives a salt, the structure may show the parent alone.
How the values were obtained:
[1] = biological target: T1, glycine transporter-1 (GlyT-1) (Homo sapiens, UniProt P48067); assay: [14C]glycine uptake assay in JAR cells endogenously expressing GlyT-1 (scintillation proximity); format: cell-based; conditions: JAR cells, [14C]glycine 5 μM, 3 hour incubation; read-out: GlyT-1 IC50
T1 construct: JAR cells (ATCC#HTB-144), which endogenously express GlyT-1; host or cells: JAR human choriocarcinoma cells
T1 sequence (P48067 1-706): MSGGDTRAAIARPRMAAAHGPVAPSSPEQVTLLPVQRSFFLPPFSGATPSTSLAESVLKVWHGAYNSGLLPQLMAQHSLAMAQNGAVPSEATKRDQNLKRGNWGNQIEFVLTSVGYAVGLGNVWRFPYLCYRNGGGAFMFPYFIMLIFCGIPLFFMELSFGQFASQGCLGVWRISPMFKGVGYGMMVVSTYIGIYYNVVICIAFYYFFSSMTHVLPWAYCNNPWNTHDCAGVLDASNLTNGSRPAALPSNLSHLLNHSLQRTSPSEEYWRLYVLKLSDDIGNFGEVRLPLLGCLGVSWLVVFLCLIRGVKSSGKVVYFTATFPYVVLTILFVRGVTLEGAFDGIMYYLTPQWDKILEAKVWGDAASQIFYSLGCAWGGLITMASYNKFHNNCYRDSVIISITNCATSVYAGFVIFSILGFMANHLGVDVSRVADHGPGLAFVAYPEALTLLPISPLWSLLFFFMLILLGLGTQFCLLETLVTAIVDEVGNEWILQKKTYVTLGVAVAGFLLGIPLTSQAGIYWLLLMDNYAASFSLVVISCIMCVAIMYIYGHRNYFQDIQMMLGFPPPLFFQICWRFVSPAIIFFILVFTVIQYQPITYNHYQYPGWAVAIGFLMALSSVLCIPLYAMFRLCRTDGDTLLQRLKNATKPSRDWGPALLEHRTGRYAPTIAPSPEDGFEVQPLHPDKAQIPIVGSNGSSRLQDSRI
In short: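 IC50 comes from a four-parameter fit of nine-point, duplicate curves measuring inhibition of 5 μM [14C]glycine uptake, read by scintillation proximity after 3 h at 37 °C. Cells are human JAR, which express GlyT-1 endogenously, given 10 min compound pre-treatment in pH 7.4 buffer with 5 mM alanine and 0.75% DMSO.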

[2] = biological target: T2, glycine transporter-2 (GlyT-2) (Homo sapiens, UniProt Q9Y345); assay: [14C]glycine uptake assay in HEK-GlyT-2 transfected cells; format: cell-based; conditions: HEK-GlyT-2 cells
T2 construct: expressed in transfected cells
T2 sequence (Q9Y345 1-797): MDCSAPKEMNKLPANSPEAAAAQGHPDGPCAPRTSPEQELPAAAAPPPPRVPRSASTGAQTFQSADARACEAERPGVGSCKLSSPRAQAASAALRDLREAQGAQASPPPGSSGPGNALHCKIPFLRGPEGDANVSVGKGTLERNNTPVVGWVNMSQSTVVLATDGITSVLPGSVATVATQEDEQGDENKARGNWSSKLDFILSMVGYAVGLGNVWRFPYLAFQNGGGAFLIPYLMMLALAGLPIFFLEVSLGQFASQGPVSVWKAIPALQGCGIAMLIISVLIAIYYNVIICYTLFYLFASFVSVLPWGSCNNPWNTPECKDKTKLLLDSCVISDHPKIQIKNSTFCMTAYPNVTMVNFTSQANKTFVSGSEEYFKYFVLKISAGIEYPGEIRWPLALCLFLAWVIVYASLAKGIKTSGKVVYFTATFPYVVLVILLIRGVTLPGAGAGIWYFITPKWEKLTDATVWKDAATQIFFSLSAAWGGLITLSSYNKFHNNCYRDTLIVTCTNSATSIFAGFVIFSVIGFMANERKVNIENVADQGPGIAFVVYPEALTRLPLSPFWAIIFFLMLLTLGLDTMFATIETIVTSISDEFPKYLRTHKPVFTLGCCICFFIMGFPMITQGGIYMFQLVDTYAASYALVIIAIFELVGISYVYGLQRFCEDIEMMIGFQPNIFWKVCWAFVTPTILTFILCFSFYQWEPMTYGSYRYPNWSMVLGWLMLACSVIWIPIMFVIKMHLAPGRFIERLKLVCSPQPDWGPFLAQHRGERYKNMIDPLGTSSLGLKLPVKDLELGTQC

| SMILES | IC50 [1] | IC50 [2] |
| --- | --- | --- |
| CC1CN(C2(CNC(=O)c3c(F)cccc3F)CCCCC2)CCN1S(=O)(=O)CC1CC1 (centres unmarked) [compound 117, N-((1-(4-(Cyclopropylmethyl-sulfonyl)-3-methylpiperazin-1-yl)cyclohexyl)methyl)-2,6-difluorobenzamide Hydrochloride] | 1070 nM | > 75000 nM |
| CCCS(=O)(=O)N1CCN(C2(CNC(=O)c3c(Cl)cccc3Cl)CCOCC2)CC1 [compound 119, 2,6-Dichloro-N-((4-(4-(propylsulfonyl)piperazin-1-yl)tetrahydro-2H-pyran-4-yl)methyl)benzamide Hydrochloride] | 276 nM | > 45000 nM |
| CCCS(=O)(=O)N1CCN(C2(CNC(=O)c3c(C)cccc3C)CCOCC2)CC1 [compound 120, 2,6-Dimethyl-N-((4-(4-(propylsulfonyl)piperazin-1-yl)tetrahydro-2H-pyran-4-yl)methyl)benzamide Hydrochloride] | 175 nM | 41300 nM |
| CCCS(=O)(=O)N1CCN(C2(CNC(=O)c3c(C)cc(F)cc3OC)CCOCC2)CC1 [compound 121, 4-Fluoro-2-methoxy-6-methyl-N-((4-(4-(propylsulfonyl)piperazin-1-yl)tetrahydro-2H-pyran-4-yl)methyl)benzamide Hydrochloride] | 191 nM | > 45000 nM |
| CCCS(=O)(=O)N1CCN(C2(CNC(=O)c3c(OC)cc(F)cc3SC)CCOCC2)CC1 [compound 122, 4-Fluoro-2-methoxy-6-(methylthio)-N-((4-(4-(propylsulfonyl)piperazin-1-yl)tetrahydro-2H-pyran-4-yl)methyl)benzamide Hydrochloride] | 95 nM | > 75000 nM |
| CCCS(=O)(=O)N1CCN(C2(CNC(=O)c3c(F)cccc3OC)CCOCC2)CC1 [compound 123, 2-Fluoro-6-methoxy-N-((4-(4-(propyl-sulfonyl)piperazin-1-yl)tetrahydro-2H-pyran-4-yl)methyl)benzamide Hydrochloride] | 418 nM | > 75000 nM |
| Cn1cnc(S(=O)(=O)N2CCN(C3(CNC(=O)c4c(F)cccc4F)CCOCC3)CC2)c1 [compound 124, 2,6-Difluoro-N-((4-(4-(1-methyl-1H-imidazol-4-ylsulfonyl)piperazin-1-yl)tetrahydro-2H-pyran-4-yl)methyl)benzamide Hydrochloride] | 337 nM | > 75000 nM |
| CCCS(=O)(=O)N1CCN(C2(CNC(=O)c3ccc(Cl)cc3Cl)CCCOC2)CC1 (centres unmarked) [compound 125, 2,4-Dichloro-N-((3-(4-(propylsulfonyl)piperazin-1-yl)tetrahydro-2H-pyran-3-yl)methyl)benzamide Hydrochloride] | 177 nM | > 75000 nM |
| CCCS(=O)(=O)N1CCN(C2(CNC(=O)c3ccc(Cl)cc3Cl)CCC(F)(F)CC2)CC1 [compound 136, 2,4-Dichloro-N-((4,4-difluoro-1-(4-(propylsulfonyl)piperazin-1-yl)cyclohexyl)methyl) benzamide Hydrochloride] | 36 nM | > 75000 nM |

More lines, now with the values ahead:

| IC50 [1] | IC50 [2] | SMILES |
| --- | --- | --- |
| 724 nM | > 75000 nM | O=C(NCC1(N2CCN(S(=O)(=O)CC3CC3)CC2)CCCOC1)c1c(F)cccc1F (centres unmarked) [compound 126, N-((3-(4-(Cyclopropylmethyl-sulfonyl)piperazin-1-yl)tetrahydro-2H-pyran-3-yl)methyl)-2,6-difluorobenzamide Hydrochloride] |
| 369 nM | > 75000 nM | Cn1cnc(S(=O)(=O)N2CCN(C3(CNC(=O)c4c(F)cccc4F)CCCOC3)CC2)c1 (centres unmarked) [compound 127, 2,6-Difluoro-N-((3-(4-(1-methyl-1H-imidazol-4-ylsulfonyl)piperazin-1-yl)tetrahydro-2H-pyran-3-yl)methyl)benzamide Hydrochloride] |
| 83 nM | > 75000 nM | Cn1cc(S(=O)(=O)N2CCN(C3(CNC(=O)c4c(F)cccc4F)CCOCC3)CC2)nn1 [compound 128, 2,6-Difluoro-N-((4-(4-(1-methyl-1H-1,2,3-triazol-4-ylsulfonyl)piperazin-1-yl)tetrahydro-2H-pyran-4-yl)methyl)benzamide Hydrochloride] |
| 11 nM | > 75000 nM | Cn1cc(S(=O)(=O)N2CCN(C3(CNC(=O)c4ccc(Cl)cc4Cl)CCOCC3)CC2)nn1 [compound 129, 2,4-Dichloro-N-((4-(4-(1-methyl-1H-1,2,3-triazol-4-ylsulfonyl)piperazin-1-yl)tetrahydro-2H-pyran-4-yl)methyl)benzamide Hydrochloride] |
| 64 nM | > 75000 nM | CCCS(=O)(=O)N1CCN(C2(CNC(=O)c3ccccc3C(F)(F)F)CCC(F)(F)CC2)CC1 [compound 132, N-((4,4-Difluoro-1-(4-(propylsulfonyl)piperazin-1-yl)cyclohexyl)methyl)-2-(trifluoromethyl) benzamide Hydrochloride] |
| 48 nM | > 75000 nM | CCCS(=O)(=O)N1CCN(C2(CNC(=O)c3ccccc3OC)CCC(F)(F)CC2)CC1 [compound 133, N-((4,4-Difluoro-1-(4-(propylsulfonyl)piperazin-1-yl)cyclohexyl)methyl)-2-methoxybenzamide Hydrochloride] |
| 42 nM | > 75000 nM | CCCS(=O)(=O)N1CCN(C2(CNC(=O)c3c(Cl)cccc3Cl)CCC(F)(F)CC2)CC1 [compound 135, 2,6-Dichloro-N-((4,4-difluoro-1-(4-(propylsulfonyl)piperazin-1-yl)cyclohexyl)methyl) benzamide Hydrochloride] |
| 28 nM | > 75000 nM | CCCS(=O)(=O)N1CCN(C2(CNC(=O)c3c(C)cc(F)cc3OC)CCC(F)(F)CC2)CC1 [compound 137, N-((4,4-Difluoro-1-(4-(propylsulfonyl)piperazin-1-yl)cyclohexyl)methyl)-4-fluoro-2-methoxy-6-methylbenzamide Hydrochloride] |
| 25 nM | > 75000 nM | CCCS(=O)(=O)N1CCN(C2(CNC(=O)c3c(OC)cc(F)cc3SC)CCC(F)(F)CC2)CC1 [compound 138, N-((4,4-Difluoro-1-(4-(propylsulfonyl)piperazin-1-yl)cyclohexyl)methyl)-4-fluoro-2-methoxy-6-(methylthio)benzamide Hydrochloride] |
| 54 nM | > 75000 nM | CCCS(=O)(=O)N1CCN(C2(CNC(=O)c3ccccc3Cl)CCC(F)(F)CC2)CC1 [compound 139, 2-Chloro-N-((4,4-difluoro-1-(4-(propylsulfonyl)piperazin-1-yl)cyclohexyl)methyl) benzamide Hydrochloride] |
| 48 nM | > 75000 nM | CCCS(=O)(=O)N1CCN(C2(CNC(=O)c3ccccc3OC(F)(F)F)CCC(F)(F)CC2)CC1 [compound 141, N-((4,4-Difluoro-1-(4-(propylsulfonyl)piperazin-1-yl)cyclohexyl)methyl)-2-(trifluoromethoxy) benzamide Hydrochloride] |
| 9 nM | > 75000 nM | Cn1cnc(S(=O)(=O)N2CCN(C3(CNC(=O)c4ccccc4Cl)CCC(F)(F)CC3)CC2)c1 [compound 160, 2-Chloro-N-((4,4-difluoro-1-(4-(1-methyl-1H-imidazol-4-ylsulfonyl)piperazin-1-yl)cyclohexyl)methyl) benzamide Hydrochloride] |
| 1 nM | > 75000 nM | Cn1cnc(S(=O)(=O)N2CCN(C3(CNC(=O)c4ccccc4OC(F)(F)F)CCC(F)(F)CC3)CC2)c1 [compound 161, N-((4,4-difluoro-1-(4-(1-methyl-1H-imidazol-4-ylsulfonyl)piperazin-1-yl)cyclohexyl)methyl)-2-(trifluoromethoxy) benzamide Hydrochloride] |

Reference: US9045445B2, “Glycine transporter-1 inhibitors, methods of making them, and uses thereof” (Albany Molecular Research, Inc., priority 2010, dated 2015)
